Measured values as given in PubChem BioAssay (NCI).
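Grown in 96-well plates, cells were treated for 48 hours with each compound at five concentrations. Insufficient inhibition: endpoint recorded as highest concentration tested. The concentration for 50% growth inhibition is given as GI50. Definition used: TGI = concentration required for complete inhibition of growth.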

Experiments:
Test in all cases: growth of human tumour cells (NCI), 48 h
UACC-62 melanoma = system: UACC-62 melanoma
HCT-116 colon = system: HCT-116 colon
HT29 colon = system: HT29 colon
A549 NSCLC = system: A549 NSCLC
SR leukemia = system: SR leukemia
HL-60(TB) leukemia = system: HL-60(TB) leukemia
SK-MEL-5 melanoma = system: SK-MEL-5 melanoma
PC-3 prostate = system: PC-3 prostate
UO-31 renal = system: UO-31 renal
T-47D breast = system: T-47D breast

| SMILES | GI50 (UACC-62 melanoma) [µM] | TGI (UACC-62 melanoma) [µM] | GI50 (HCT-116 colon) [µM] | TGI (HCT-116 colon) [µM] | GI50 (HT29 colon) [µM] | TGI (HT29 colon) [µM] | GI50 (A549 NSCLC) [µM] | TGI (A549 NSCLC) [µM] | GI50 (SR leukemia) [µM] | TGI (SR leukemia) [µM] | GI50 (HL-60(TB) leukemia) [µM] | TGI (HL-60(TB) leukemia) [µM] | GI50 (SK-MEL-5 melanoma) [µM] | TGI (SK-MEL-5 melanoma) [µM] | GI50 (PC-3 prostate) [µM] | TGI (PC-3 prostate) [µM] | TGI (UO-31 renal) [µM] | GI50 (T-47D breast) [µM] | TGI (T-47D breast) [µM] | GI50 (UO-31 renal) [µM] |
| --- | --- | --- | --- | --- | --- | --- | --- | --- | --- | --- | --- | --- | --- | --- | --- | --- | --- | --- | --- | --- |
| O=Cc1ccc(-c2ccc(-c3nc4ccccc4[nH]3)cc2)s1 | 22.1 | 52.9 | 18.4 | 39 | 38.9 | > 100 | 40.4 | > 100 | 15.6 | 98.7 | 47.1 | > 100 | 20.3 | 41.9 | 18.2 | 40.3 |  |  |  |  |
| CCOC(=O)Cc1nc2ccccc2s1 |  | 33.3 |  | 39 |  | 37.1 |  | 54.2 |  | 48.9 |  | 43.9 |  | 48.5 |  |  | 29.7 |  |  |  |
| CCOC(CCCNCCCn1c2c(c3cc(OC)c(OC)cc3c1=O)C(=O)c1cc3c(cc1-2)OCO3)OCC | 6.03 | 12.2 | 2.41 | 9.83 | 5.12 | 10.9 | 5.73 | 11.8 |  |  | 5.25 | 11.1 | 7.62 | 14.3 | 5.38 | 11.3 | 11.9 | 7.76 | 14.4 | 5.82 |
| CC(C)N(C(=O)C1(C)CC1)C(C)C |  | > 100 |  | > 100 |  | > 100 |  | > 100 |  |  |  | > 100 |  | > 100 |  |  | > 100 |  |  |  |
| CC1=C(C(=O)Nc2ccccc2)C(c2ccc([N+](=O)[O-])cc2)C(C(=O)Nc2ccccc2)=C(C)N1 |  | 27.9 |  | 37.2 |  | 41.3 |  | > 100 |  | 45.7 |  | 34.1 |  | 61.7 |  |  | > 100 |  |  |  |
| COc1cc(Br)c(CC2(C#N)c3ccccc3C3C(N2C(=O)c2ccccc2)C3(Cl)Cl)cc1OC (stereo unspecified) |  | > 65.5 |  | > 65.5 |  | > 65.5 |  | > 65.5 |  | > 65.5 |  | 30.2 |  | > 65.5 |  |  | > 65.5 |  |  |  |
| O=Nc1ccc(O)c2ccccc12 | 1.69 | 3.37 | 1.17 | 2.46 | 1.86 | 5.71 | 2.14 | 4.79 |  |  |  |  | 1.65 | 3.04 | 1.88 | 6.99 | 3.37 |  |  | 1.36 |
| COC(=O)C(Cc1cnc[nH]1)NC(=O)CNC(=O)CCCn1c(=O)c2c3ccccc3n(C)c2n2nnc(-c3ccccc3)c12 (stereo unspecified) | > 100 | > 100 | > 100 | > 100 | > 100 | > 100 | > 100 | > 100 |  |  |  |  | > 100 | > 100 | 30.1 | > 100 | > 100 | > 100 | > 100 | > 100 |
| C[N+](C)(C)CC(=O)N/N=C(\CCC(=O)NCCc1ccccc1)CC(=O)c1ccccc1 |  | > 100 |  | > 100 |  | > 100 |  | > 100 |  |  |  | > 100 |  | > 100 |  |  | > 100 |  |  |  |
| O=C(CSc1nc2ccccc2nc1-c1ccccc1)Nc1ccc(Cl)cc1 | 20.7 | > 100 | 5.24 | 24 | 25.1 | > 100 | 32 | > 100 |  |  |  |  | 19.3 | > 100 | 30.6 | > 100 | > 100 | 13 | > 100 | 55.4 |
| O=C(NCCc1ccccc1)C(c1ccccc1)(c1ccccc1)c1ccccc1 | 1.46 | 14.6 | 1.95 | > 100 |  |  | 1.75 | 5.59 |  |  | 38.7 | > 100 | 8.97 | 21.4 | 31 | > 100 | 43.4 | 30.4 | > 100 | 6.32 |
| COc1cc2c(c(OC)c1O)-c1ccc(OC)c(=O)cc1[C@@H](NC(=O)C(F)(F)F)CC2 |  | > 100 |  | > 40.8 |  |  |  | > 100 |  |  |  | 2.55 |  | 0.0668 |  | 0.588 | > 100 |  | > 100 |  |
| O=C1OC(c2ccccc2)=N/C1=C\c1ccc2ccccc2c1 |  | > 100 |  | > 100 |  | > 100 |  | > 100 |  |  |  |  |  | > 100 |  |  | > 100 |  |  |  |
| N.N.N.N.O=NN1CCCCCC1(P(=O)([O-])[O-])P(=O)([O-])[O-].[Pt+4].[Pt+4] | > 100 | > 100 | > 100 | > 100 | > 100 | > 100 | > 100 | > 100 |  |  | > 100 | > 100 | > 100 | > 100 |  |  | > 100 |  |  | > 100 |
| COc1cc2c3c(c4ccc(OC)c(OC)c4c2cc1OC)CN1CCC[C@@H]1C3 |  | 0.35 |  | 3.1 |  | 0.593 |  |  |  |  |  | 0.577 |  | 0.324 |  | 6.58 | 0.291 |  |  |  |
| COc1c2c3ccccc3nc-2n(C)c2ccccc12 | 11.1 | 33 | 4.18 | 81.7 | 4.75 | > 100 | 14.3 | > 100 | 7.1 | > 100 | 9.88 | 47.6 | 12.8 | 33.1 | 5.25 | 20.5 | > 100 |  |  | 29.1 |
| COC(=O)[C@@]1(Cc2ccccc2)[C@H]2c3cc(C(=O)N4CCCC4)n(Cc4ccc(OC)c(OC)c4)c3C[C@H]2CN1C(=O)c1ccccc1 | 7.49 | 15.8 | 7.28 | 13.8 | 9.12 | 25 | 13.7 | 46.2 |  |  | 8.96 | 24.8 | 7.71 | 14.4 | 22.6 | > 50 | 17.3 | 9.55 | 32.1 | 8.5 |
| CCN(CC)CC.CCOc1ccc(NC(=O)N=C=[N-])cc1.[CH-]1CCCCC1.[CH-]1CCCCC1.[CH-]1CCCCC1.[Cl-].[Sn+4] | 0.0228 | 0.0559 | 0.014 | 0.0289 | 0.022 | 0.0467 | 0.0331 | 0.107 |  |  | 0.0184 | 0.0584 | 0.0303 | 0.0941 | 0.0596 | 0.21 | 0.0928 |  |  | 0.0452 |
